Source: patent EP4745117A1, “NOVEL INDENONE DERIVATIVE AND USE THEREOF” (Amyloid Solution Inc., priority 2023, dated 2025)
Where two headings read alike, the source gives them in different places.

Experiments:
[1] = biological target: Tau-RD3 (Tau repeat domain 3) (Homo sapiens, UniProt P10636); experiment: Tau disaggregation test by Thioflavin-T analysis; type: biochemical; conditions: for EC50: Tau-RD3 35 µM aggregated 24 hours, then compound 0 - 500 µM for 48 hours at 37 °C, concentration disaggregating 50 % of aggregates vs control, read-out: EC50 (µM) Tau; for disaggregation effect for tau protein aggregates: statement in words summarising the Thioflavin-T results
Experimental: (§1) Each compound was dissolved in DMSO to a concentration of 10 mM. Then, the compounds were diluted with 6 % DMSO (in DW) for use.
(§2) Amyloid-beta and tau solutions were prepared by dissolving Aβ1-42 or Tau-RD3 (Tau repeat domain 3) monomers in DMSO to a concentration of 10 mM. Then, the solutions were diluted to 100 µM with DW and stored on ice.
(§3) Meanwhile, Thioflavin-T was dissolved in 50 mM glycine buffer (pH 8.5) to a concentration of 5 mM. Then, the solution was diluted to 5 µM with 50 mM glycine buffer (pH 8.5) and stored in the dark, protected from light.
(§4) The amyloid-beta and tau solutions prepared in Example 1.1 were each placed in 1.5 mL microcentrifuge tubes to a concentration of 50 µM or 35 µM, respectively, and then reacted at 37 °C for 24 hours.
(§5) To each 1.5 mL microcentrifuge tube in which the amyloid-beta and tau aggregation was complete, the compounds were added at concentrations ranging from 500 µM down to 0 µM by serial dilution, and then further reacted at 37 °C for 48 hours.
(§6) 25 µL of each completed reaction solution was added to each well of a 96-well fluorescence analysis plate, and 75 µL of the Thioflavin-T solution was added to each well. After reacting for 5 minutes at room temperature in the dark, the fluorescence value was measured at 450 nm (excitation) and 485 nm (emission) using a multi-mode microplate reader.
(§7) The fluorescence value of the group (control group) treated with only amyloid-beta or tau and aggregated for 72 hours was designated as 100 %. The fluorescence values measured after treating the amyloid-beta and tau aggregates (formed by reacting for 24 hours) with each compound by concentration and reacting for an additional 48 hours were converted to relative values.

Aβ1-42 = biological target: T1, Aβ1-42 (Homo sapiens, UniProt P05067); experiment: Amyloid-beta disaggregation test by Thioflavin-T analysis; type: biochemical; conditions: for disaggregation effect for amyloid-beta protein aggregates: statement in words summarising the Thioflavin-T results
T1 construct: dissolving Aβ1-42 or Tau-RD3 (Tau repeat domain 3) monomers in DMSO
Experimental: as §1, §2, §3, §4, §5, §6, §7

[2] = Aβ1-42 50 µM aggregated 24 hours, then compound 0 - 500 µM for 48 hours at 37 °C, concentration disaggregating 50 % of aggregates vs control, read-out: EC50 (µM) Aβ

T1 sequence (P05067 672-713 limits assumed): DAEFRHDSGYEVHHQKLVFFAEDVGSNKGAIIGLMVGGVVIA
Tau-RD3 (Tau repeat domain 3), sequence (P10636 623-653 limits assumed): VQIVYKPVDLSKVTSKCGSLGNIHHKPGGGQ

Structure (SMILES): Cc1ncsc1C1=C(c2cccnc2)C(=O)c2ccccc21 [Compound 19, 3-(4-methylthiazol-5-yl)-2-(pyridin-3-yl)-1H-inden-1-one]
- EC50 [1]: 100 to 250 µM
- EC50 (Aβ1-42; [2]): > 250 µM

Structure (SMILES): Cc1ncsc1C1=C(c2cccnc2)C(=O)c2cc(NCCCc3ccccc3)ccc21 [Compound 20, 3-(4-methylthiazol-5-yl)-6-((3-phenylpropyl)amino)-2-(pyridin-3-yl)-1H-inden-1-one]
- EC50 [1]: < 20 µM
- disaggregation effect for tau protein aggregates [1]: remarkably excellent disaggregation effect
- EC50 (Aβ1-42; [2]): < 20 µM
- disaggregation effect for amyloid-beta protein aggregates (Aβ1-42): remarkably excellent disaggregation effect

Structure (SMILES): Cc1ccncc1C1=C(c2scnc2C)c2ccc(OCCCc3ccccc3)cc2C1=O [Compound 21, 2-(4-methylpyridin-3-yl)-3-(4-methylthiazol-5-yl)-6-(3-phenylpropoxy)-1H-inden-1-one]
- EC50 [1]: < 20 µM
- disaggregation effect for tau protein aggregates [1]: remarkably excellent disaggregation effect
- EC50 (Aβ1-42; [2]): < 20 µM
- disaggregation effect for amyloid-beta protein aggregates (Aβ1-42): remarkably excellent disaggregation effect

Structure (SMILES): COc1ccc2c(c1)C(=O)C(c1cnccc1C)=C2c1scnc1C [Compound 22, 6-methoxy-2-(4-methylpyridin-3-yl)-3-(4-methylthiazol-5-yl)-1H-inden-1-one]
- EC50 [1]: 20 to 100 µM
- EC50 (Aβ1-42; [2]): > 250 µM

Structure (SMILES): Cc1scnc1C1=C(c2cccnc2)C(=O)c2cc(OCCCc3ccncc3)ccc21 [Compound 23, 3-(5-methylthiazol-4-yl)-2-(pyridin-3-yl)-6-(3-(pyridin-4-yl)propoxy)-1H-inden-1-one]
- EC50 [1]: < 20 µM
- disaggregation effect for tau protein aggregates [1]: remarkably excellent disaggregation effect
- EC50 (Aβ1-42; [2]): < 20 µM
- disaggregation effect for amyloid-beta protein aggregates (Aβ1-42): remarkably excellent disaggregation effect

Structure (SMILES): Cc1scnc1C1=C(c2cccnc2)C(=O)c2cc(O)ccc21 [Compound 23-10, 6-hydroxy-3-(5-methylthiazol-4-yl)-2-(pyridin-3-yl)-1H-inden-1-one]
- EC50 [1]: 20 to 100 µM
- EC50 (Aβ1-42; [2]): > 250 µM

Structure (SMILES): CC(=O)Oc1ccc2c(c1)C(=O)C(Br)=C2c1ccn(C)n1 [Compound 24, 2-bromo-3-(1-methyl-1H-pyrazol-3-yl)-1-oxo-1H-inden-6-yl acetate]
- EC50 [1]: < 20 µM
- EC50 (Aβ1-42; [2]): > 250 µM

Structure (SMILES): Cc1ncsc1C1=C(c2cc[nH]n2)C(=O)c2cc(OCCCc3ccccc3)ccc21 [Compound 25, 3-(4-methylthiazol-5-yl)-6-(3-phenylpropoxy)-2-(1H-pyrazol-3-yl)-1H-inden-1-one]
- EC50 [1]: > 250 µM
- EC50 (Aβ1-42; [2]): < 20 µM

Structure (SMILES): Cc1ncsc1C1=C(c2ccn(C)n2)C(=O)c2cc(OCCCc3ccccc3)ccc21 [Compound 26, 2-(1-methyl-1H-pyrazol-3-yl)-3-(4-methylthiazol-5-yl)-6-(3-phenylpropoxy)-1H-inden-1-one]
- EC50 [1]: > 250 µM
- EC50 (Aβ1-42; [2]): < 20 µM

Structure (SMILES): Cc1ncsc1C1=C(c2cn[nH]c2)C(=O)c2cc(OCCCc3ccccc3)ccc21 [Compound 27, 3-(4-methylthiazol-5-yl)-6-(3-phenylpropoxy)-2-(1H-pyrazol-4-yl)-1H-inden-1-one]
- EC50 [1]: < 20 µM
- disaggregation effect for tau protein aggregates [1]: remarkably excellent disaggregation effect
- EC50 (Aβ1-42; [2]): < 20 µM
- disaggregation effect for amyloid-beta protein aggregates (Aβ1-42): remarkably excellent disaggregation effect

Structure (SMILES): Cc1ncsc1C1=C(c2cnn(C)c2)C(=O)c2cc(OCCCc3ccccc3)ccc21 [Compound 28, 2-(1-methyl-1H-pyrazol-4-yl)-3-(4-methylthiazol-5-yl)-6-(3-phenylpropoxy)-1H-inden-1-one]
- EC50 [1]: < 20 µM
- disaggregation effect for tau protein aggregates [1]: remarkably excellent disaggregation effect
- EC50 (Aβ1-42; [2]): < 20 µM
- disaggregation effect for amyloid-beta protein aggregates (Aβ1-42): remarkably excellent disaggregation effect

Structure (SMILES): Cc1ncsc1C1=C(c2ccn(C3CCN(C)CC3)n2)C(=O)c2cc(OCCCc3ccccc3)ccc21 [Compound 29, 2-(1-(1-methylpiperidin-4-yl)-1H-pyrazol-3-yl)-3-(4-methylthiazol-5-yl)-6-(3-phenylpropoxy)-1H-inden-1-one]
- EC50 [1]: > 250 µM
- EC50 (Aβ1-42): > 250 µM

Structure (SMILES): Cc1ncsc1C1=C(c2c[nH]nn2)C(=O)c2cc(OCCCc3ccccc3)ccc21 [Compound 31, 3-(4-methylthiazol-5-yl)-6-(3-phenylpropoxy)-2-(1H-1,2,3-triazol-4-yl)-1H-inden-1-one]
- EC50 [1]: < 20 µM
- EC50 (Aβ1-42; [2]): < 20 µM

Structure (SMILES): Cc1ncsc1C1=C(c2cn(C)nn2)C(=O)c2cc(OCCCc3ccccc3)ccc21 [Compound 32, 2-(1-methyl-1H-1,2,3-triazol-4-yl)-3-(4-methylthiazol-5-yl)-6-(3-phenylpropoxy)-1H-inden-1-one]
- EC50 [1]: < 20 µM
- EC50 (Aβ1-42; [2]): < 20 µM

Structure (SMILES): Cc1ncsc1C1=C(c2cnn(C)n2)C(=O)c2cc(OCCCc3ccccc3)ccc21 [Compound 33, 2-(2-methyl-2H-1,2,3-triazol-4-yl)-3-(4-methylthiazol-5-yl)-6-(3-phenylpropoxy)-1H-inden-1-one]
- EC50 [1]: < 20 µM
- EC50 (Aβ1-42; [2]): < 20 µM

Structure (SMILES): Cc1ncsc1C1=C(C#N)C(=O)c2cc(OCCCc3ccccc3)ccc21 [Compound 34, 3-(4-methylthiazol-5-yl)-1-oxo-6-(3-phenylpropoxy)-1H-indene-2-carbonitrile]
- EC50 [1]: 100 to 250 µM
- EC50 (Aβ1-42; [2]): > 250 µM

Structure (SMILES): Cc1ncsc1C1=C(c2cccnc2)C(=O)c2cc(O)ccc21 [Compound 35, 6-hydroxy-3-(4-methylthiazol-5-yl)-2-(pyridin-3-yl)-1H-inden-1-one]
- EC50 [1]: 20 to 100 µM
- EC50 (Aβ1-42; [2]): 20 to 100 µM

Structure (SMILES): Cc1ncsc1C1=C(c2cccnc2)C(=O)c2cc(OCCO)ccc21 [Compound 36, 6-(2-hydroxyethoxy)-3-(4-methylthiazol-5-yl)-2-(pyridin-3-yl)-1H-inden-1-one]
- EC50 [1]: 20 to 100 µM
- EC50 (Aβ1-42; [2]): 100 to 250 µM

Structure (SMILES): COCCOc1ccc2c(c1)C(=O)C(c1cccnc1)=C2c1scnc1C [Compound 37, 6-(2-methoxyethoxy)-3-(4-methylthiazol-5-yl)-2-(pyridin-3-yl)-1H-inden-1-one]
- EC50 [1]: 20 to 100 µM
- EC50 (Aβ1-42; [2]): 20 to 100 µM

Structure (SMILES): Cc1ncsc1C1=C(c2cccnc2)C(=O)c2cc(N(C)CCCc3ccccc3)ccc21 [Compound 38, 6-(methyl(3-phenylpropyl)amino)-3-(4-methylthiazol-5-yl)-2-(pyridin-3-yl)-1H-inden-1-one]
- EC50 [1]: > 250 µM
- EC50 (Aβ1-42; [2]): < 20 µM

Structure (SMILES): Cc1ncsc1C1=C(c2ccncc2)C(=O)c2cc(OCCCc3ccccc3)ccc21 [Compound 39, 3-(4-methylthiazol-5-yl)-6-(3-phenylpropoxy)-2-(pyridin-4-yl)-1H-inden-1-one]
- EC50 [1]: > 250 µM
- EC50 (Aβ1-42; [2]): < 20 µM

Structure (SMILES): Cc1ncsc1C1=C(c2ccncc2)C(=O)c2cc(O)ccc21 [Compound 39-3, 6-hydroxy-3-(4-methylthiazol-5-yl)-2-(pyridin-4-yl)-1H-inden-1-one]
- EC50 [1]: > 250 µM
- EC50 (Aβ1-42; [2]): > 250 µM

Structure (SMILES): Cc1ncsc1C1=C(c2ccccn2)C(=O)c2cc(OCCCc3ccccc3)ccc21 [Compound 40, 3-(4-methylthiazol-5-yl)-6-(3-phenylpropoxy)-2-(pyridin-2-yl)-1H-inden-1-one]
- EC50 [1]: > 250 µM
- EC50 (Aβ1-42; [2]): < 20 µM

Structure (SMILES): Cc1ncsc1C1=C(c2ccccn2)C(=O)c2cc(O)ccc21 [Compound 40-4, 6-hydroxy-3-(4-methylthiazol-5-yl)-2-(pyridin-2-yl)-1H-inden-1-one]
- EC50 [1]: > 250 µM
- EC50 (Aβ1-42; [2]): > 250 µM

Structure (SMILES): Cc1ncsc1C1=C(c2cnccn2)C(=O)c2cc(OCCCc3ccccc3)ccc21 [Compound 41, 3-(4-methylthiazol-5-yl)-6-(3-phenylpropoxy)-2-(pyrazin-2-yl)-1H-inden-1-one]
- EC50 [1]: > 250 µM
- EC50 (Aβ1-42; [2]): < 20 µM

Structure (SMILES): Cc1ncsc1C1=C(c2cnccn2)C(=O)c2cc(O)ccc21 [Compound 41-4, 6-hydroxy-3-(4-methylthiazol-5-yl)-2-(pyrazin-2-yl)-1H-inden-1-one]
- EC50 [1]: > 250 µM
- EC50 (Aβ1-42; [2]): > 250 µM

Structure (SMILES): Cn1cc(C2=C(c3cccnc3)C(=O)c3cc(OCCCc4ccccc4)ccc32)cn1 [Compound 42, 3-(1-methyl-1H-pyrazol-4-yl)-6-(3-phenylpropoxy)-2-(pyridin-3-yl)-1H-inden-1-one]
- EC50 [1]: > 250 µM
- EC50 (Aβ1-42; [2]): > 250 µM

Structure (SMILES): COc1ccc2c(c1)C(=O)C(c1cccnc1)=C2c1cnn(C)c1 [Compound 42-6, 6-methoxy-3-(1-methyl-1H-pyrazol-4-yl)-2-(pyridin-3-yl)-1H-inden-1-one]
- EC50 [1]: 20 to 100 µM
- EC50 (Aβ1-42; [2]): 20 to 100 µM

Structure (SMILES): Cn1cc(C2=C(c3cccnc3)C(=O)c3cc(O)ccc32)cn1 [Compound 42-7, 6-hydroxy-3-(1-methyl-1H-pyrazol-4-yl)-2-(pyridin-3-yl)-1H-inden-1-one]
- EC50 [1]: 100 to 250 µM
- EC50 (Aβ1-42; [2]): > 250 µM

Structure (SMILES): O=C1C(c2cccnc2)=C(c2cn[nH]c2)c2ccc(OCCCc3ccccc3)cc21 [Compound 43, 6-(3-phenylpropoxy)-3-(1H-pyrazol-4-yl)-2-(pyridin-3-yl)-1H-inden-1-one]
- EC50 [1]: > 250 µM
- EC50 (Aβ1-42; [2]): > 250 µM
